# Results reported in patent publication US7998989B2, “2-Imino-1,3-thiazoline-based compounds and T-type calcium channel inhibitors containing the same” (Korea Institute of Science and Technology, priority 2007, dated 2011).
# Structures can show the parent of a compound that is named as a salt.
# Biological target: T1, α1G T-type calcium channel (Homo sapiens, UniProt O43497)
# T1 construct: host or cells: HEK293
# Test: Assay for % inhibiting activity against T-type calcium channel using FDSS6000 (fluo-3 calcium imaging, KCl activation)
# Format: cell-based
# Settings: 10 μM; FDSS (% inhibition); comparative compounds where R6 is a phenyl group; read-out: FDSS
# Procedure: In the present invention, in order to examine an efficient inhibitor against the T-type calcium channel, a primary assay for T-type calcium channel inhibiting activity was conducted by a high-efficient assay using FDSS6000, wherein mammal HEK293 cell lines (originated from human kidney carcinoma cells) that specifically express α1G of the T-type calcium channel was used for primary assay. Through the primary assay, compounds that show meaningful inhibition effects were selected. The selected compounds were used in a second assay for T-type calcium channel inhibiting activity using an electrophysiological whole cell patch clamp method, wherein mammal HEK293 cell lines (originated from human kidney carcinoma cells) that specifically express α1G of the T-type calcium channel was used for the second assay. Mibefradil, which had been developed as a T-type calcium channel inhibitor, was used as a reference.
# At 12-24 hours before being used for this assay, cells of HEK293 cell line (α1G cell line: KCTC 10519BP, Korean Collection for Type Cultures), which stably express α1G T-type calcium channel and Kir2.1, were sub-cultured in a poly-L-lysine treated 96-well plate with the density of 4×10^4 per well using a 96-well cell dispenser (Titertek). On the day of assay, the 96-well plate to which the cells were attached was washed three times with HEPES buffer solution (150 mM of NaCl, 5 mM of KCl, 1 mM of MgCl2, 2 mM of CaCl2, 10 mM of HEPES, 10 mM of glucose; pH 7.4) using a 96-well plate automatic washing device (Bio Tek), then reacted with HEPES buffer solution containing 5 μM fluo-3/AM and 0.001% Pluronic F-127 at room temperature for 1 hour, to label with fluorescent dye, and then further washed two times with HEPES buffer solution.
# Thereafter, at 10 minutes before the measurement using device FDSS6000, washing with HEPES buffer solution containing 10 mM CaCl2 was conducted once more, and the final volume was adjusted to 81 μl. Besides the above 96-well plate containing the cells, two additional drug 96-well plates were provided, wherein the 96-well plates contained an inhibiting drug and KCl (final concentration: 75 mM) for activating the T-type calcium channel, respectively. Since most of cell-based HTS devices are equipped with a liquid application system for injection of drug, but have no liquid sucking system, the inhibiting drug to be tested and KCl were respectively provided at a five-times higher concentration in 10 mM CaCl2 HEPES buffer solution at the amount of 27 μl, diluted by five-times at the final cell plate volume of 135 μl, and then used in this test. The concrete method of measurement using FDSS6000 was as follows. After recording the reference value of 20 seconds, the change of intracellular Ca^2+ concentration that was induced by treatment of the inhibiting drug to be tested for 75 seconds followed by administration of KCl was measured, wherein the percentage (%) inhibition effect of the test drug, through estimating the area of ratio value of 340/380 in the control without treatment of the test drug, was 100%. As a reference drug, 10 μM mibefradil was used.
# For accurate calcium imaging, the light source of 4 xenon lamps in FDSS6000 were radiated to selectively expose the cells to the excitation wavelength (340 nm and 380 nm) by a computer-controlled filter wheel. Data was obtained at intervals of 1.23 seconds. The emitter fluorescence light inflowed through a long-pass filter was obtained as an average 340/380 ratio value for each well in the 96-wells by using a CCD camera and a digital fluorescence analyzer in FDSS6000. All image data and analyses were obtained by using a FDSS6000-exclusive program from Hamamatsu Photonics.
# The obtained results are shown in Table 2 (the results from the compounds according to the examples of the present invention) and Table 3 (the results from the compounds according to the comparative example where R6 is a phenyl group) [FDSS (% inhibition) 10 μM].
# T1 sequence (O43497 whole entry): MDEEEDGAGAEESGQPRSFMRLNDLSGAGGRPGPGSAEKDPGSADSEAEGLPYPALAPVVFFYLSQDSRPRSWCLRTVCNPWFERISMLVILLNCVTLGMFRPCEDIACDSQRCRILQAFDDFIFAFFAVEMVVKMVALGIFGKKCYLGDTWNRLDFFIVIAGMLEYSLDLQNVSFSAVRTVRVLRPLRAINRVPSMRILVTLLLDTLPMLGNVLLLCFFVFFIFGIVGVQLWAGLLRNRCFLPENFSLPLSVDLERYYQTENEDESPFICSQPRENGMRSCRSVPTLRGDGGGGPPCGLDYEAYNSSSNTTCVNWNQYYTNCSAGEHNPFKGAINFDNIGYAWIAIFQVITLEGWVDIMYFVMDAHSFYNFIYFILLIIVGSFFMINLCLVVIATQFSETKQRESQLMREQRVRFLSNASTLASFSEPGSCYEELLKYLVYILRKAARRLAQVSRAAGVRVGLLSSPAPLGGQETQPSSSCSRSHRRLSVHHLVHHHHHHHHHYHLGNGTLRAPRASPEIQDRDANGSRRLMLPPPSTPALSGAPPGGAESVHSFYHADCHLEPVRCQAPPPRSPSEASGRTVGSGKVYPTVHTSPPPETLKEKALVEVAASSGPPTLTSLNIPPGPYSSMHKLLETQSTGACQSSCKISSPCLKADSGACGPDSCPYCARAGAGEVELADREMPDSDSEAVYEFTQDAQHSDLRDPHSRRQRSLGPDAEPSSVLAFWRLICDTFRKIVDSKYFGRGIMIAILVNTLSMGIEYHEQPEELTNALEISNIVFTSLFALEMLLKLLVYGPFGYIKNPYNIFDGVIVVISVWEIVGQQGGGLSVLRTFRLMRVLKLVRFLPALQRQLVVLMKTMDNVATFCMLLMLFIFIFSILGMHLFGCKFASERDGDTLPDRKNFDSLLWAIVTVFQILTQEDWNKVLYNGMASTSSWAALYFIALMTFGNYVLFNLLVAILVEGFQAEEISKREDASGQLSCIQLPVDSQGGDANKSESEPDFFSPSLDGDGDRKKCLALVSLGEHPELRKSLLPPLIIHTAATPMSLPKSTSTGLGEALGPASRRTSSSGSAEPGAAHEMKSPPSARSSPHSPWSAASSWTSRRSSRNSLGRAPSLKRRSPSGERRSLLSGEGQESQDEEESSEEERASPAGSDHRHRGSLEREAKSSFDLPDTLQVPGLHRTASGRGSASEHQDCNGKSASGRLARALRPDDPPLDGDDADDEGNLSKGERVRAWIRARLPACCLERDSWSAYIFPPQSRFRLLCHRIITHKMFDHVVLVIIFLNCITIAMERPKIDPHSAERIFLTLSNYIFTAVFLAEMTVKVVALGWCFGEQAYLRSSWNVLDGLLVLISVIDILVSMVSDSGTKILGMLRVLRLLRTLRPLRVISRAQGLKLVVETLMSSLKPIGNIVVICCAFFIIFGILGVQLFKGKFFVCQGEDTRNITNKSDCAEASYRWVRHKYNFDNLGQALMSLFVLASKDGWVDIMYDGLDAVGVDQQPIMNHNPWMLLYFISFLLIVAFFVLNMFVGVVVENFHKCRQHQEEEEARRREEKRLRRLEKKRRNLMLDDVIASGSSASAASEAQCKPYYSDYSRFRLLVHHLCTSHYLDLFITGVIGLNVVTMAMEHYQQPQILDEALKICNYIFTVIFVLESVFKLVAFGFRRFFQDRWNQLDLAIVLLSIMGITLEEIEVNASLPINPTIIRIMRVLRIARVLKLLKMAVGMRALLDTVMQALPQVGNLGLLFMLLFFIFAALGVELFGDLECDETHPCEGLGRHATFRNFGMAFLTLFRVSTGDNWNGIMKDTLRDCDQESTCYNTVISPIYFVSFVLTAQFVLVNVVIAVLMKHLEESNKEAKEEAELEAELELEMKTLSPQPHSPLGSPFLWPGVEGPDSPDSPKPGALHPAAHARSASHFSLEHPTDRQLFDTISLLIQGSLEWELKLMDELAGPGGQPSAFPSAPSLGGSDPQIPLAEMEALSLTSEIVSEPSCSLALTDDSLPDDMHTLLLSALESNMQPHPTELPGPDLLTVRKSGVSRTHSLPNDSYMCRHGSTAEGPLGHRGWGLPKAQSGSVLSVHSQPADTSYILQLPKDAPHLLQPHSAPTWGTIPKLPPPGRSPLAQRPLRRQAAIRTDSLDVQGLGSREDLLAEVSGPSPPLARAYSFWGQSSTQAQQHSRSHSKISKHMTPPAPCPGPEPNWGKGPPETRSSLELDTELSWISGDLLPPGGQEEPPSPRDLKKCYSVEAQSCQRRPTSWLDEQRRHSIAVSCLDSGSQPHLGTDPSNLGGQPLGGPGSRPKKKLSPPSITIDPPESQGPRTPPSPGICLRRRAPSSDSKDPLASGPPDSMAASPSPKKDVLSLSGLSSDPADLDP
row,inhibition at 10 µM [%],Compound
1,26.2,"COc1ccc(N=C2SCC(CC(=O)Nc3ccc(Cl)cc3)N2C)cc1.Cl (stereo not shown) [KHG21648, [2-(4-methoxyphenylimino)-3-methyl-1,3-thiazolidine-4-yl]-N-(4-chlorophenyl)-acetamide hydrochloride]"
2,27.8,"COc1cccc(N=C2SCC(CC(=O)Nc3ccc(Cl)cc3)N2C)c1.Cl (stereo not shown) [KHG21649, [2-(3-methoxyphenylimino)-3-methyl-1,3-thiazolidine-4-yl]-N-(4-chlorophenyl)-acetamide hydrochloride]"

# Same assay, conditions: 10 μM; HEK293 cells stably expressing α1G T-type calcium channel and Kir2.1; compounds of the examples
row,FDSS (% inhibition)/10uM [%],Compound
1,57.43,CCCCc1ccc(NC(=O)CC2CSC(=NC34CC5CC(CC(C5)C3)C4)N2C)cc1.Cl (stereo not shown) [KHG24409]
2,62.67,CN1C(=NC23CC4CC(CC(C4)C2)C3)SCC1CC(=O)Nc1ccc(Cl)cc1F.Cl (stereo not shown) [KHG24411]
3,56.4,CN1C(=NC23CC4CC(CC(C4)C2)C3)SCC1CC(=O)Nc1ccccc1.Cl (stereo not shown) [KHG24412]
4,66.47,"CCCCN1C(=NC23CC4CC(CC(C4)C2)C3)SCC1CC(=O)Nc1ccc2c(c1)OCO2.Cl (stereo not shown) [KHG24803, [2-(1-adamantylimino)-3-n-butyl-1,3-thiazolidine-4-yl]-N-(3,4-dioxymethylenephenyl)-acetamide hydrochloride]"
5,44.67,"Cl.O=C(CC1CSC(=NC23CC4CC(CC(C4)C2)C3)N1C1CC1)Nc1ccc2c(c1)OCO2 (stereo not shown) [KHG24804, [2-(1-adamantylimino)-3-cyclopropyl-1,3-thiazolidine-4-yl]-N-(3,4-dioxymethylenephenyl)-acetamide hydrochloride]"
6,68.43,"CCCN1C(=NC23CC4CC(CC(C4)C2)C3)SCC1CC(=O)Nc1ccc2c(c1)OCO2.Cl (stereo not shown) [KHG24837, [2-(1-adamantylimino)-3-n-propyl-1,3-thiazolidine-4-yl]-N-(3,4-dioxymethylenephenyl)-acetamide hydrochloride]"
7,53.33,"CC(C)N1C(=NC23CC4CC(CC(C4)C2)C3)SCC1CC(=O)Nc1ccc2c(c1)OCO2.Cl (stereo not shown) [KHG24838, [2-(1-adamantylimino)-3-isopropyl-1,3-thiazolidine-4-yl]-N-(3,4-dioxymethylenephenyl)-acetamide hydrochloride]"

# Same assay, conditions: 10 μM; HEK293 cells stably expressing α1G T-type calcium channel and Kir2.1; compounds of the examples; hydrochloride
row,FDSS (% inhibition)/10uM [%],Compound
1,64.09,CN1C(=NC23CC4CC(CC(C4)C2)C3)SCC1CC(=O)Nc1cc(Cl)cc(Cl)c1.Cl (stereo not shown) [KHG24410]
2,62.08,Cc1ccc(NC(=O)CC2CSC(=NC34CC5CC(CC(C5)C3)C4)N2C)c(Cl)c1.Cl (stereo not shown) [KHG24413]

# Continued, compound first:
row,Compound,FDSS (% inhibition)/10uM [%]
1,"CCc1ccc(NC(=O)CC2CSC(=NC3CCCC3)N2C)cc1.Cl (stereo not shown) [KHG24093, (2-cyclopentylimino-3-methyl-1,3-thiazolidine-4-yl)-N-(4-ethylphenyl)-acetamide hydrochloride]",34.77
2,"Cc1ccc(NC(=O)CC2CSC(=NC3CCCCC3)N2C2CCCCC2)cc1.Cl (stereo not shown) [KHG24535, (2-cyclohexylimino-3-cyclohexyl-1,3-thiazolidine-4-yl)-N-(4-methylphenyl)-acetamide hydrochloride]",40.31

# Same assay, conditions: HEK293, 10 μM; HEK293 cells stably expressing α1G T-type calcium channel and Kir2.1; compounds of the examples; read-out: FDSS (% inhibition)/10uM
row,inhibition at 10 µM [%],Compound
1,30.5,"CN1C(=NC2CCCCC2)SCC1CC(=O)Nc1ccc2c(c1)OCO2 (stereo not shown) [KHG24086, (2-cyclohexylimino-3-methyl-1,3-thiazolidine-4-yl)-N-(3,4-methylenedioxyphenyl)-acetamide hydrochloride]"
2,35.4,"CN1C(=NC2CCCCC2)SCC1CC(=O)Nc1cc(F)ccc1F (stereo not shown) [KHG24087, (2-cyclohexylimino-3-methyl-1,3-thiazolidine-4-yl)-N-(2,5-difluorophenyl)-acetamide hydrochloride]"
3,43.1,"CCc1ccc(NC(=O)CC2CSC(=NC3CCCC3)N2C)cc1.Cl (stereo not shown) [KHG24092, (2-cyclopentylimino-3-methyl-1,3-thiazolidine-4-yl)-N-(4-ethylphenyl)-acetamide hydrochloride]"
4,53.6,"CC(C)c1ccc(NC(=O)CC2CSC(=NC3CCCCC3)N2C)cc1 (stereo not shown) [KHG24110, (2-cyclohexylimino-3-methyl-1,3-thiazolidine-4-yl)-N-(4-isopropylphenyl)-acetamide hydrochloride]"
5,33.6,"Cl.O=C(CC1CSC(=NC2CCCCC2)N1C1CCCCC1)Nc1ccc(Cl)cc1 (stereo not shown) [KHG24266, [2-cyclohexylimino-3-cyclohexyl-1,3-thiazolidine-4-yl]-N-(4-chlorophenyl)-acetamide hydrochloride]"
6,43.9,"Cl.O=C(CC1CSC(=NC2CCCCC2)N1C1CCCCC1)Nc1cc(C(F)(F)F)cc(C(F)(F)F)c1 (stereo not shown) [KHG24307, (2-cyclohexylimino-3-cyclohexyl-1,3-thiazolidine-4-yl)-N-(3,5-ditrifluoromethylphenyl)-acetamide hydrochloride]"
7,31,"Cc1ccc(NC(=O)CC2CSC(=NC3CCCCC3)N2C2CCCCC2)cc1.Cl (stereo not shown) [KHG24313, (2-cyclohexylimino-3-cyclohexyl-1,3-thiazolidine-4-yl)-N-(4-methylphenyl)-acetamide hydrochloride]"
8,47.4,"CN1C(=NC2CCCCCC2)SCC1CC(=O)Nc1ccc(N)cc1 (stereo not shown) [KHG24448, (2-cycloheptylimino-3-methyl-1,3-thiazolidine-4-yl)-N-(4-aminophenyl)-acetamide hydrochloride]"
9,40.5,"CN1C(=NC2CCCCCC2)SCC1CC(=O)NCc1ccc(N)cc1 (stereo not shown) [KHG24449, (2-cycloheptylimino-3-methyl-1,3-thiazolidine-4-yl)-N-(4-aminobenzyl)-acetamide hydrochloride]"
10,58.2,"CN1C(=NC2CCCCC2)SCC1CC(=O)Nc1cc(C(F)(F)F)cc(C(F)(F)F)c1 (stereo not shown) [KHG24529, (2-cyclohexylimino-3-methyl-1,3-thiazolidine-4-yl)-N-(3,5-ditrifluoromethylphenyl)-acetamide hydrochloride]"
11,42.6,"Cc1ccc(NC(=O)C2CSC(=NC3CCCCCC3)N2C)cc1 (stereo not shown) [KHG24628, (2-cycloheptylimino-3-methyl-1,3-thiazolidine-4-yl)-N-(4-methylphenyl)-carboxamide]"
12,56.8,"CN1C(=NC2CCCCCC2)SCC1C(=O)Nc1cc(C(F)(F)F)cc(C(F)(F)F)c1 (stereo not shown) [KHG24630, (2-cycloheptylimino-3-methyl-1,3-thiazolidine-4-yl)-N-(3,5-ditrifluoromethylphenyl)-carboxamide]"

# Tested on: not given
# Test: not given
# Settings: not given
row,melting point [°C],Compound
1,250 to 253,"COc1ccc(N=C2SCC(CC(=O)Nc3ccc(Cl)cc3)N2C)cc1.Cl (stereo not shown) [KHG21648, [2-(4-methoxyphenylimino)-3-methyl-1,3-thiazolidine-4-yl]-N-(4-chlorophenyl)-acetamide hydrochloride]"
2,228 to 231,"COc1cccc(N=C2SCC(CC(=O)Nc3ccc(Cl)cc3)N2C)c1.Cl (stereo not shown) [KHG21649, [2-(3-methoxyphenylimino)-3-methyl-1,3-thiazolidine-4-yl]-N-(4-chlorophenyl)-acetamide hydrochloride]"
3,278.6,"CN1C(=NC2CCCCCC2)SCC1C(=O)Nc1ccc(Oc2ccccc2)cc1 (stereo not shown) [KHG24682, (2-cycloheptylimino-3-methyl-1,3-thiazolidine-4-yl)-N-(4-phenoxyphenyl)-carboxamide]"
4,170.8,"CN1C(=NC2CCCCCC2)SCC1C(=O)Nc1ccc(C(C)(C)C)cc1 (stereo not shown) [KHG24684, (2-cycloheptylimino-3-methyl-1,3-thiazolidine-4-yl)-N-(4-t-butylphenyl)-carboxamide]"
5,241.2,"CN1C(=NC2CCCCCC2)SCC1C(=O)Nc1cc(Cl)ccc1F (stereo not shown) [KHG24686, (2-cycloheptylimino-3-methyl-1,3-thiazolidine-4-yl)-N-(5-chloro-2-fluorophenyl)-carboxamide]"
6,173.3,"CCCCc1ccc(NC(=O)C2CSC(=NC3CCCCCC3)N2C)cc1 (stereo not shown) [KHG24689, (2-cycloheptylimino-3-methyl-1,3-thiazolidine-4-yl)-N-(4-n-butylphenyl)-carboxamide]"
